Key:
tumors = assay: Response to nivolumab monotherapy (CheckMate trials) by TDO2 expression; assay type: in vivo, human; conditions: immuno-oncology naïve patients
Protocol: TDO2 expression was determined by median. All tumors are […] from the biomarker cohort (Clinical Trial No. NCT02658890). Nivolumab monotherapy data is from CheckMate trials. NE=not evaluable; PD=progressive disease; PR=partial response; SCCHN=squamous cell carcinoma of the head and neck; SD=stable disease; TDO2=tryptophan 2,3-dioxygenase 2.
Therefore, the association between TDO2 expression and clinical response was evaluated. High or low TDO2 expression levels were determined by the median. Based on the objective response rate, 26% of patients with low TDO2 expression responded to treatment while only 13% of patients with high TDO2 expression responded to treatment (TABLE 4).

[1] = monotherapy, every two weeks; MTD not reached; cited from earlier work
TDO2 = TDO2 (Homo sapiens, UniProt P48775); conditions: cited from earlier work
TDO2, sequence (P48775 whole entry): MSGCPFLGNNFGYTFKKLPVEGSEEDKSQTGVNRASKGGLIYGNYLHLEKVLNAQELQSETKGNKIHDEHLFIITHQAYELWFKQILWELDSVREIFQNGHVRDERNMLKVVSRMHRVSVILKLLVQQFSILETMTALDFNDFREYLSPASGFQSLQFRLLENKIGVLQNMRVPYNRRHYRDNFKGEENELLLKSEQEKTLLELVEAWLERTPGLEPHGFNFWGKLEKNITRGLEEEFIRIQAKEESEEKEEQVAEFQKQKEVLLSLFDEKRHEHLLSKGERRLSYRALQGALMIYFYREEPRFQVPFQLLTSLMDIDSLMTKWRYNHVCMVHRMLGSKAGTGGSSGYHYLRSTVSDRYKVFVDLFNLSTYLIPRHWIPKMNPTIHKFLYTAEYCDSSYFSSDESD

Compound | association between TDO2 expression and response (tumors) | maximum tolerated dose (MTD) [1] [mg/kg] | inhibition of TDO2 enzymatic activity (TDO2)
nivolumab | No association | > 10 | 
C[C@@H](C(=O)Nc1ccc(Cl)cc1)[C@H]1CC[C@@H](c2ccnc3ccc(F)cc32)CC1 [linrodostat, (2R)—N-(4-chlorophenyl)-2-(cis-4-(6-fluoroquinolin-4-yl)cyclohexyl)propanamide] |  |  | not TDO2 enzymatic activity
